Measured values published in PubChem BioAssay (NCI).
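Where inhibition never reached the appropriate level, the endpoint shown equals the highest concentration tested. Otherwise, values were interpolated linearly from a five-concentration, 48-hour dose response in 96-well plates. Abbreviation: GI50, concentration required for 50% inhibition of growth. TGI marks complete inhibition of growth.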

Experiments:
Experiment in all cases: NCI tumour cell line growth inhibition, 48 h
[1] = test system: SK-MEL-28 melanoma
[2] = test system: RXF 393 renal
[3] = test system: SR leukemia
[4] = test system: CCRF-CEM leukemia
[5] = test system: SN12C renal
[6] = test system: LOX IMVI melanoma
[7] = test system: SNB-75 CNS
[8] = test system: T-47D breast
[9] = test system: SF-268 CNS
[10] = test system: A549 NSCLC
[11] = test system: OVCAR-8 ovarian
[12] = test system: SNB-19 CNS
[13] = test system: U251 CNS
[14] = test system: NCI-H23 lung
[15] = test system: MDA-MB-231 breast
[16] = test system: BT-549 breast
[17] = test system: SK-MEL-2 melanoma
[18] = test system: MCF7 breast
[19] = test system: TK-10 renal
[20] = test system: A498 renal
[21] = test system: 786-0 renal
[22] = test system: MALME-3M melanoma
[23] = test system: UACC-257 melanoma
[24] = test system: M14 melanoma
[25] = test system: EKVX NSCLC
[26] = test system: SW-620 colon
[27] = test system: OVCAR-3 ovarian
[28] = test system: IGROV1 ovarian
[29] = test system: HCT-15 colon
[30] = test system: NCI/ADR-RES ovarian
[31] = test system: HCC-2998 colon
[32] = test system: HOP-92 NSCLC
[33] = test system: SF-539 CNS
[34] = test system: UACC-62 melanoma
[35] = test system: NCI-H460 lung
[36] = test system: ACHN renal
[37] = test system: HS 578T breast
[38] = test system: K-562 leukemia
[39] = test system: NCI-H226 lung
[40] = test system: MDA-MB-435
[41] = test system: HT29 colon
[42] = test system: HL-60(TB) leukemia
[43] = test system: NCI-H522 lung
[44] = test system: DU-145 prostate
[45] = test system: MOLT-4 leukemia
[46] = test system: RPMI-8226 leukemia
[47] = test system: HOP-62 NSCLC
[48] = test system: COLO 205 colon
[49] = test system: SK-OV-3 ovarian
[50] = test system: SK-MEL-5 melanoma
[51] = test system: CAKI-1 renal
[52] = test system: OVCAR-5 ovarian
[53] = test system: PC-3 prostate
[54] = test system: HCT-116 colon
[55] = test system: KM12 colon
[56] = test system: UO-31 renal
[57] = test system: SF-295 CNS
[58] = test system: OVCAR-4 ovarian

For C=C1C(=O)O[C@H]2[C@H]1CC/C(COC(=O)/C=C\C(=O)NCc1ccc(Cn3c(=O)sn(CCCI)c3=O)cc1)=C\CC[C@@]1(C)O[C@@H]21, the GI50 [1] was 800 nM, the TGI [1] was 1500 nM and the GI50 [2] was 423 nM. The TGI [2] was 1110 nM, the GI50 [3] was 170 nM and the TGI [3] was 7.8 µM. It also gave a GI50 [4] of 155 nM, a TGI [4] of 1680 nM and a GI50 [5] of 643 nM. It also gave a TGI [5] of 1500 nM, a GI50 [6] of 291 nM and a TGI [6] of 983 nM. The GI50 [7] was 442 nM, the TGI [7] was 1160 nM and the GI50 [8] was 801 nM. It also gave a TGI [8] of 2170 nM, a GI50 [9] of 740 nM and a TGI [9] of 1440 nM. It also gave a GI50 [10] of 1050 nM, a TGI [10] of 2960 nM and a GI50 [11] of 771 nM. It also gave a TGI [11] of 3.41 µM, a GI50 [12] of 850 nM and a TGI [12] of 1690 nM. For the same compound, the GI50 [13] was 871 nM, the TGI [13] was 1950 nM and the GI50 [14] was 788 nM. It also gave a TGI [14] of 1530 nM, a GI50 [15] of 593 nM and a TGI [15] of 1340 nM. For the same compound, the GI50 [16] was 622 nM, the TGI [16] was 1450 nM and the GI50 [17] was 919 nM. It also gave a TGI [17] of 1960 nM, a GI50 [18] of 282 nM and a TGI [18] of 1090 nM. It also gave a GI50 [19] of 758 nM, a TGI [19] of 1520 nM and a GI50 [20] of 831 nM. It also gave a TGI [20] of 1550 nM, a GI50 [21] of 770 nM and a TGI [21] of 1510 nM. For the same compound, the GI50 [22] was 707 nM, the TGI [22] was 1420 nM and the GI50 [23] was 872 nM. The TGI [23] was 1810 nM, the GI50 [24] was 637 nM and the TGI [24] was 1440 nM. The GI50 [25] was 729 nM, the TGI [25] was 1440 nM and the GI50 [26] was 250 nM. The TGI [26] was 891 nM, the GI50 [27] was 281 nM and the TGI [27] was 927 nM. The GI50 [28] was 368 nM, the TGI [28] was 1110 nM and the GI50 [29] was 355 nM. For the same compound, the TGI [29] was 1120 nM, the GI50 [30] was 988 nM and the TGI [30] was 3.61 µM. For the same compound, the GI50 [31] was 909 nM, the TGI [31] was 1660 nM and the GI50 [32] was 580 nM. For the same compound, the TGI [32] was 1310 nM, the GI50 [33] was 689 nM and the TGI [33] was 1340 nM. For the same compound, the GI50 [34] was 732 nM, the TGI [34] was 1450 nM and the GI50 [35] was 738 nM. For the same compound, the TGI [35] was 1580 nM, the GI50 [36] was 413 nM and the TGI [36] was 1040 nM. It also gave a GI50 [37] of 851 nM, a TGI [37] of 2390 nM and a GI50 [38] of 312 nM. The TGI [38] was 13.1 µM, the GI50 [39] was 883 nM and the TGI [39] was 2620 nM. The GI50 [40] was 605 nM, the TGI [40] was 1250 nM and the GI50 [41] was 547 nM. It also gave a TGI [41] of 2460 nM, a GI50 [42] of 575 nM and a TGI [42] of 2260 nM. The GI50 [43] was 643 nM, the TGI [43] was 1730 nM and the GI50 [44] was 654 nM. The TGI [44] was 1310 nM, the GI50 [45] was 557 nM and the TGI [45] was 2990 nM. The GI50 [46] was 196 nM, the TGI [46] was 1210 nM and the GI50 [47] was 1510 nM. For the same compound, the TGI [47] was 7.68 µM, the GI50 [48] was 568 nM and the TGI [48] was 1510 nM. The GI50 [49] was 5.08 µM, the TGI [49] was 11.4 µM and the GI50 [50] was 813 nM. It also gave a TGI [50] of 1490 nM, a GI50 [51] of 298 nM and a TGI [51] of 999 nM. The GI50 [52] was 752 nM, the TGI [52] was 1590 nM and the GI50 [53] was 610 nM. For the same compound, the TGI [53] was 1440 nM, the GI50 [54] was 193 nM and the TGI [54] was 770 nM. For the same compound, the GI50 [55] was 866 nM, the TGI [55] was 1730 nM and the GI50 [56] was 316 nM. It also gave a TGI [56] of 1020 nM, a GI50 [57] of 2190 nM and a TGI [57] of 8.06 µM. The GI50 [58] was 603 nM and the TGI [58] was 1290 nM.
